Reference: ChEMBL document CHEMBL1201862, “PubChem BioAssay data set” (2004)
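Exposure lasted 48 hours, with cells grown in 96-well plates and compounds tested at five concentrations. The concentration for 50% growth inhibition is given as GI50.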 Active and inactive are the calls of the source. No stated cut-off is given here; in the data, active = GI50 up to about 1.1 µM and inactive = higher.

What was measured:
Experiment in all cases: inhibition of tumour cell growth, NCI panel, 48 h
[1] = system: T47D
[2] = system: M14
[3] = system: SF-268
[4] = system: IGROV-1
[5] = system: BT-549
[6] = system: 786-0
[7] = system: SK-MEL-28
[8] = system: SF-539
[9] = system: CCRF-CEM
[10] = system: SK-MEL-5
[11] = system: PC-3
[12] = system: NCI-H226
[13] = system: KM12
[14] = system: HCT-116
[15] = system: TK-10
[16] = system: NCI-H23
[17] = system: RPMI-8226
[18] = system: SR
[19] = system: HCT-15
[20] = system: SNB-75

| Structure (SMILES) | GI50 [1] | GI50 [2] | GI50 [3] | GI50 [4] | GI50 [5] | GI50 [6] | GI50 [7] | GI50 [8] | GI50 [9] | GI50 [10] | GI50 [11] | GI50 [12] | GI50 [13] | GI50 [14] | GI50 [15] | GI50 [16] | GI50 [17] | GI50 [18] | GI50 [19] [µM] | GI50 [20] |
| --- | --- | --- | --- | --- | --- | --- | --- | --- | --- | --- | --- | --- | --- | --- | --- | --- | --- | --- | --- | --- |
| O=C(C(Cl)=C(N1CCCCC1)N1CCCCC1)C(Cl)Cl | > 100 µM (inactive) | > 100 µM (inactive) | > 100 µM (inactive) | > 100 µM (inactive) | > 100 µM (inactive) | > 100 µM (inactive) | > 100 µM (inactive) | > 100 µM (inactive) | > 100 µM (inactive) | > 100 µM (inactive) | > 100 µM (inactive) | > 100 µM (inactive) | > 100 µM (inactive) | > 100 µM (inactive) | > 100 µM (inactive) | > 100 µM (inactive) | > 100 µM (inactive) | > 100 µM (inactive) | > 100 |  |
| CC/C(=C/OC)P1(=O)OC(C)(C)CN1C(C)(C)C (configuration not stated) | > 100 µM (inactive) | > 100 µM (inactive) | > 100 µM (inactive) | > 100 µM (inactive) | > 100 µM (inactive) | > 100 µM (inactive) |  | > 100 µM (inactive) |  | > 100 µM (inactive) | > 100 µM (inactive) | > 100 µM (inactive) | > 100 µM (inactive) | > 100 µM (inactive) | > 100 µM (inactive) | > 100 µM (inactive) | > 100 µM (inactive) | > 100 µM (inactive) | > 100 |  |
| C[C@H](CCC(=O)O)[C@H]1CC[C@H]2[C@@H]3[C@H](O)C[C@@H]4C[C@H](O)CC[C@]4(C)[C@H]3CC[C@]12C [CHENODIOL] | 40.2 µM (inactive) | 27.7 µM (inactive) | 44.1 µM (inactive) | 27 µM (inactive) | 36.3 µM (inactive) | 36.3 µM (inactive) | 42.6 µM (inactive) | 24.7 µM (inactive) | 33.1 µM (inactive) |  | 36.4 µM (inactive) | 22.2 µM (inactive) | 33.3 µM (inactive) | 33.8 µM (inactive) | 26.2 µM (inactive) | 27.9 µM (inactive) | 22.6 µM (inactive) | 14.6 µM (inactive) | 32.1 | 19.6 µM (inactive) |
| COP(=O)(OC)/C(=C/c1c[nH]c2ccccc12)C(=O)O | > 100 µM (inactive) | > 100 µM (inactive) |  | > 100 µM (inactive) | > 100 µM (inactive) | > 100 µM (inactive) | > 100 µM (inactive) | > 100 µM (inactive) | > 100 µM (inactive) | > 100 µM (inactive) | > 100 µM (inactive) | > 100 µM (inactive) | > 100 µM (inactive) | > 100 µM (inactive) | > 100 µM (inactive) | > 100 µM (inactive) | > 100 µM (inactive) | > 100 µM (inactive) | > 100 | > 100 µM (inactive) |
| CCN(CC)CC1CN=C(N)O1 (configuration not stated) | > 100 µM (inactive) | > 100 µM (inactive) |  | > 100 µM (inactive) | > 100 µM (inactive) | > 100 µM (inactive) | > 100 µM (inactive) | > 100 µM (inactive) | > 100 µM (inactive) | > 100 µM (inactive) | > 100 µM (inactive) | > 100 µM (inactive) | > 100 µM (inactive) | > 100 µM (inactive) |  | > 100 µM (inactive) | > 100 µM (inactive) | > 100 µM (inactive) | > 100 | > 100 µM (inactive) |
| Cc1cc(C)nc(NC(=S)Nc2ccccc2Cl)c1 | > 100 µM (inactive) | > 100 µM (inactive) | > 100 µM (inactive) | > 100 µM (inactive) | > 100 µM (inactive) | > 100 µM (inactive) | > 100 µM (inactive) | > 100 µM (inactive) | > 100 µM (inactive) | > 100 µM (inactive) | > 100 µM (inactive) | > 100 µM (inactive) | > 100 µM (inactive) | > 100 µM (inactive) | > 100 µM (inactive) |  | > 100 µM (inactive) | > 100 µM (inactive) | > 100 | 73.1 µM (inactive) |
| C[C@@]1(c2ccccc2)O[C@@H]2C[C@H]3[C@@H]4CCC5=CC(=O)C=C[C@]5(C)[C@@]4(F)[C@@H](O)C[C@]3(C)[C@]2(C(=O)CO)O1 [AMCINAFIDE] | 20.2 µM (inactive) | 16.1 µM (inactive) | 15.1 µM (inactive) | 17.7 µM (inactive) | 18.2 µM (inactive) | 16.3 µM (inactive) | 16.3 µM (inactive) |  |  | 14.9 µM (inactive) | 16 µM (inactive) | 15.8 µM (inactive) | 16.4 µM (inactive) | 14.6 µM (inactive) | 19.5 µM (inactive) | 18.1 µM (inactive) | < 0.01 µM (active) | 19.3 µM (inactive) | 17.9 | 26.9 µM (inactive) |
| CCOC(=O)c1cc(C2=C(S)N(CC(C)CC)CC2)c(C(=O)CC)[nH]1 (configuration not stated) | 7.53 µM (inactive) |  | 21.9 µM (inactive) | 20.3 µM (inactive) | 19.3 µM (inactive) | 16.9 µM (inactive) | 19.5 µM (inactive) | 12 µM (inactive) | 4.28 µM (inactive) |  | 19.7 µM (inactive) | 23.5 µM (inactive) | 16.9 µM (inactive) | 15.3 µM (inactive) | 15.3 µM (inactive) | 19.5 µM (inactive) | 5.36 µM (inactive) | 5.96 µM (inactive) | 10.2 | 19.7 µM (inactive) |
